Laboratory results published in patent US20220348565A1, “PHARMACEUTICAL COMPOUNDS” (SENTINEL ONCOLOGY LIMITED, priority 2019, published 2022).

Tests used:
Experiment in all cases: DiscoverX KinomeScreen kinase selectivity competition binding assay
[1] = target: T1, panel of ninety-seven kinases (Homo sapiens, UniProt Q15303); conditions: ERBB4; read-out: % Ctrl @ 3 μM
T1 construct: purchased DiscoverX; host or cells: T7 phage in E. coli (BL21-derived) for most kinases; HEK-293 for the rest
Description: (§1) Atropisomer A-2 has been tested for off-target activity against a panel of ninety-seven kinases distributed across the kinome at a concentration of 3 μM using the DiscoverX KinomeScreen assay. The DiscoverX KinomeScreen assay is a site-directed competition binding assay which measures the binding affinity of a compound to a kinase, by use of a solid supported control compound which can bind or capture the kinases in solution. In the absence of a kinase-inhibitor test compound, all of the kinase will bind to the solid support. If a kinase-inhibitor test compound is added to the assay mix, the amount of kinase binding to the solid support will be reduced, the extent of reduction being dependent on the potency of the test compound as a kinase inhibitor. […] For most assays, kinase-tagged T7 phage strains were grown in parallel in 24-well blocks in an E. coli host derived from the BL21 strain. E. coli were grown to log-phase and infected with T7 phage from a frozen stock (multiplicity of infection=0.4) and incubated with shaking at 32° C. until lysis (90-150 minutes). The lysates were centrifuged (6,000×g) and filtered (0.2 μm) to remove cell debris. The remaining kinases were produced in HEK-293 cells and subsequently tagged with DNA for qPCR detection. Streptavidin-coated magnetic beads were treated with biotinylated small molecule ligands for 30 minutes at room temperature to generate affinity resins for kinase assays. The liganded beads were blocked with excess biotin and washed with blocking buffer (SeaBlock (Pierce), 1% BSA, 0.05% Tween 20, 1 mM DTT) to remove unbound ligand and to reduce non-specific phage binding. […] Test compounds were prepared as 40× stocks in 100% DMSO and directly diluted into the assay. All reactions were performed in polypropylene 384-well plates in a final volume of 0.02 ml. […] The beads were then re-suspended in elution buffer (1×PBS, 0.05% Tween 20, 0.5 μM non-biotinylated affinity ligand) and incubated at room temperature with shaking for 30 minutes. The kinase concentration in the eluates was measured by qPCR. Compounds that bind the kinase active site and directly (sterically) or indirectly (allosterically) prevent kinase binding to the immobilized ligand, will reduce the amount of kinase captured on the solid support. […] The strength of binding of the test molecule to the kinase can be expressed as the percent control (% Ctrl) The compound(s) were screened at 3000 nM concentration, and results for primary screen binding interactions are reported as ‘% Ctrl’, where lower numbers indicate stronger hits in the matrix on the following page(s). [formula] • negative control=DMSO (100% Ctrl) • positive control=control compound (0% Ctrl)

[2] = target: T2, panel of ninety-seven kinases (Homo sapiens, UniProt Q9BVS4); conditions: RIOK2; read-out: % Ctrl @ 3 μM
T2 construct: purchased DiscoverX; host or cells: T7 phage in E. coli (BL21-derived) for most kinases; HEK-293 for the rest
Description: as §1

[3] = target: T3, panel of ninety-seven kinases (Homo sapiens, UniProt Q15831); conditions: STK11; read-out: % Ctrl @ 3 μM
T3 construct: purchased DiscoverX; host or cells: T7 phage in E. coli (BL21-derived) for most kinases; HEK-293 for the rest
Description: as §1

[4] = target: T4, panel of ninety-seven kinases (Homo sapiens, UniProt P16234); conditions: PDGFRA; read-out: % Ctrl @ 3 μM
T4 construct: purchased DiscoverX; host or cells: T7 phage in E. coli (BL21-derived) for most kinases; HEK-293 for the rest
Description: as §1

[5] = target: T5, panel of ninety-seven kinases (Homo sapiens, UniProt P29597); conditions: TYK2; read-out: % Ctrl @ 3 μM
T5 construct: purchased DiscoverX; host or cells: T7 phage in E. coli (BL21-derived) for most kinases; HEK-293 for the rest
Description: as §1

[6] = target: T6, panel of ninety-seven kinases (Homo sapiens, UniProt Q9H093); conditions: NUAK2; read-out: % Ctrl @ 3 μM
T6 construct: purchased DiscoverX; host or cells: T7 phage in E. coli (BL21-derived) for most kinases; HEK-293 for the rest
Description: as §1

[7] = target: T7, panel of ninety-seven kinases (Homo sapiens, UniProt Q00536); conditions: CDK16; read-out: % Ctrl @ 3 μM
T7 construct: purchased DiscoverX; host or cells: T7 phage in E. coli (BL21-derived) for most kinases; HEK-293 for the rest
Description: as §1

[8] = target: T8, panel of ninety-seven kinases (Homo sapiens, UniProt Q96GD4); conditions: AURKB; read-out: % Ctrl @ 3 μM
T8 construct: purchased DiscoverX; host or cells: T7 phage in E. coli (BL21-derived) for most kinases; HEK-293 for the rest
Description: as §1

[9] = target: T9, panel of ninety-seven kinases (Homo sapiens, UniProt P49841); conditions: GSK3B; read-out: % Ctrl @ 3 μM
T9 construct: purchased DiscoverX; host or cells: T7 phage in E. coli (BL21-derived) for most kinases; HEK-293 for the rest
Description: as §1

[10] = target: T10, panel of ninety-seven kinases (Homo sapiens, UniProt O15075); conditions: DCLK1; read-out: % Ctrl @ 3 μM
T10 construct: purchased DiscoverX; host or cells: T7 phage in E. coli (BL21-derived) for most kinases; HEK-293 for the rest
Description: as §1

[11] = target: T11, panel of ninety-seven kinases (Homo sapiens, UniProt O15530); conditions: PDPK1; read-out: % Ctrl @ 3 μM
T11 construct: purchased DiscoverX; host or cells: T7 phage in E. coli (BL21-derived) for most kinases; HEK-293 for the rest
Description: as §1

[12] = target: T12, panel of ninety-seven kinases (Homo sapiens, UniProt P27361); conditions: MAPK3; read-out: % Ctrl @ 3 μM
T12 construct: purchased DiscoverX; host or cells: T7 phage in E. coli (BL21-derived) for most kinases; HEK-293 for the rest
Description: as §1

[13] = target: T13, panel of ninety-seven kinases (Homo sapiens, UniProt P30530); conditions: AXL; read-out: % Ctrl @ 3 μM
T13 construct: purchased DiscoverX; host or cells: T7 phage in E. coli (BL21-derived) for most kinases; HEK-293 for the rest
Description: as §1

[14] = target: T14, panel of ninety-seven kinases (Homo sapiens, UniProt P80192); conditions: MAP3K9; read-out: % Ctrl @ 3 μM
T14 construct: purchased DiscoverX; host or cells: T7 phage in E. coli (BL21-derived) for most kinases; HEK-293 for the rest
Description: as §1

[15] = target: T15, panel of ninety-seven kinases (Homo sapiens, UniProt O14920); conditions: IKBKB; read-out: % Ctrl @ 3 μM
T15 construct: purchased DiscoverX; host or cells: T7 phage in E. coli (BL21-derived) for most kinases; HEK-293 for the rest
Description: as §1

[16] = target: T16, panel of ninety-seven kinases (Homo sapiens, UniProt P11309); conditions: PIM1; read-out: % Ctrl @ 3 μM
T16 construct: purchased DiscoverX; host or cells: T7 phage in E. coli (BL21-derived) for most kinases; HEK-293 for the rest
Description: as §1

[17] = target: T17, panel of ninety-seven kinases (Homo sapiens, UniProt Q15759); conditions: MAPK11; read-out: % Ctrl @ 3 μM
T17 construct: purchased DiscoverX; host or cells: T7 phage in E. coli (BL21-derived) for most kinases; HEK-293 for the rest
Description: as §1

[18] = target: T18, panel of ninety-seven kinases (Homo sapiens, UniProt P22607); conditions: FGFR3; read-out: % Ctrl @ 3 μM
T18 construct: purchased DiscoverX; host or cells: T7 phage in E. coli (BL21-derived) for most kinases; HEK-293 for the rest
Description: as §1

[19] = target: T19, panel of ninety-seven kinases (Homo sapiens, UniProt Q9UPE1); conditions: SRPK3; read-out: % Ctrl @ 3 μM
T19 construct: purchased DiscoverX; host or cells: T7 phage in E. coli (BL21-derived) for most kinases; HEK-293 for the rest
Description: as §1

[20] = target: T20, panel of ninety-seven kinases (Homo sapiens, UniProt P35968); conditions: KDR; read-out: % Ctrl @ 3 μM
T20 construct: purchased DiscoverX; host or cells: T7 phage in E. coli (BL21-derived) for most kinases; HEK-293 for the rest
Description: as §1

[21] = target: T21, panel of ninety-seven kinases (Homo sapiens, UniProt Q86V86); conditions: PIM3; read-out: % Ctrl @ 3 μM
T21 construct: purchased DiscoverX; host or cells: T7 phage in E. coli (BL21-derived) for most kinases; HEK-293 for the rest
Description: as §1

percent of control kinase binding to immobilized ligand at 3 µM [1]: 99%
percent of control kinase binding to immobilized ligand at 3 µM [2]: 100%
percent of control kinase binding to immobilized ligand at 3 µM [3]: 81%
percent of control kinase binding to immobilized ligand at 3 µM [4]: 100%
percent of control kinase binding to immobilized ligand at 3 µM [5]: 100%
percent of control kinase binding to immobilized ligand at 3 µM [6]: 99%
percent of control kinase binding to immobilized ligand at 3 µM [7]: 100%
percent of control kinase binding to immobilized ligand at 3 µM [8]: 84%
percent of control kinase binding to immobilized ligand at 3 µM [9]: 88%
percent of control kinase binding to immobilized ligand at 3 µM [10]: 87%
percent of control kinase binding to immobilized ligand at 3 µM [11]: 96%
percent of control kinase binding to immobilized ligand at 3 µM [12]: 99%
percent of control kinase binding to immobilized ligand at 3 µM [13]: 93%
percent of control kinase binding to immobilized ligand at 3 µM [14]: 96%
percent of control kinase binding to immobilized ligand at 3 µM [15]: 96%
percent of control kinase binding to immobilized ligand at 3 µM [16]: 99%
percent of control kinase binding to immobilized ligand at 3 µM [17]: 99%
percent of control kinase binding to immobilized ligand at 3 µM [18]: 92%
percent of control kinase binding to immobilized ligand at 3 µM [19]: 71%
percent of control kinase binding to immobilized ligand at 3 µM [20]: 100%
percent of control kinase binding to immobilized ligand at 3 µM [21]: 98%
Compound: CN(C)CCNC(=O)c1ccc(-c2ccc(-c3ccc(Cl)cc3)n2-c2ccccc2C(F)(F)F)cc1 (single isomer, unassigned) [Atropisomer A-2, 4-[5-(4-chlorophenyl)-1-[2-(trifluoromethyl)phenyl]pyrrol-2-yl]-N-[2-(dimethylamino)ethyl]benzamide]
